Reference: patent US12351564B2, “NLRP3 modulators” (Zomagen Biosciences Ltd, priority 2019, dated 2025)

Each compound was assayed on IL-1b (assay: Mouse BMDM IL-1b Assay). Conditions: Macrophage; C57BL6 bone marrow derived macrophages; 200 ng/mL Ultrapure LPS-B5 3 hours, compound 30 minutes, 5 mM ATP 45 minutes; mouse IL-1b ELISA of supernatant.
Assay type: cell-based
Method: Example 8: Mouse BMDM IL-1b Assay
Mouse bone marrow cells from C57BL6 tibia and femur were culture in complete Isocov's Media supplemented with 20 ng/mL MCSF (BMDM media) at a density of 50 million cells/15 cm Petri dish. Fresh media was changed every 3 days, and bone marrow derived macrophages were collected, washed, and counted on day 7. Cells were seeded into 96 well plates at a density of 5×10^4 cells per well in 100 uL of BMDM media and cultured overnight. The cells were stimulated at 37° C. with 200 ng/mL Ultrapure LPS-B5 for 3 hours before pre-diluted compounds were added. 30 minutes after compound addition, 5 mM ATP was added for the secondary stimulation for 45 minutes. After stimulation, the plates were briefly spun down, and 50 uL of supernatant was harvested from each well. ELISA for mouse IL-1b was performed with 1:10 and 1:100 diluted supernatant using pre-coated kits. IL-1b concentrations were calculated based on pre-titrated standards, and compound inhibition IC50 is generated using the Levenberg Marquardt damped lease-square method.
Work on CC1(O)c2cc(S(=O)(=O)NC(=O)Nc3c4c(cc5c3CCC5)CCC4)oc2C2CCC1CC2 (stereo not drawn) [Compound 21, N-((1,2,3,5,6,7-hexahydro-s-indacen-4-yl)carbamoyl)-4-hydroxy-4-methyl-5,6,7,8-tetrahydro-4H-5,8-ethanocyclohepta[b]furan-2-sulfonamide] yielded an IC50 of less than 100 nM.
For CC1(O)c2cc(S(=O)(=O)NC(=O)Nc3c4c(c(Cl)c5c3CCC5)CCC4)oc2C2CCC1C2 (stereo not drawn) [Compound 20, N-((8-chloro-1,2,3,5,6,7-hexahydro-s-indacen-4-yl)carbamoyl)-4-hydroxy-4-methyl-5,6,7,8-tetrahydro-4H-5,8-methanocyclohepta[b]furan-2-sulfonamide], the IC50 was less than 100 nM.
For CC1(O)c2cc(S(=O)(=O)NC(=O)Nc3c4c(c(Br)c5c3CCC5)CCC4)oc2C2CCC1C2 (stereo not drawn) [Compound 18, N-((8-bromo-1,2,3,5,6,7-hexahydro-s-indacen-4-yl)carbamoyl)-4-hydroxy-4-methyl-5,6,7,8-tetrahydro-4H-5,8-methanocyclohepta[b]furan-2-sulfonamide], the IC50 was less than 100 nM.
CC(C)c1cccc(C(C)C)c1CC(=O)NS(=O)(=O)c1cc2c(o1)C1CCC(CC1)C2(C)O (stereo not drawn) [Compound 38, 2-(2,6-diisopropylphenyl)-N-((4-hydroxy-4-methyl-5,6,7,8-tetrahydro-4H-5,8-ethanocyclohepta[b]furan-2-yl)sulfonyl)acetamide] was tested, and the IC50 was 100 to 1000 nM.
O=C(Nc1c2c(c(F)c3c1CCC3)CCC2)NS(=O)(=O)c1cc2c(o1)C1CCC(C1)C2O (stereo not drawn) [Compound 31, N-((8-fluoro-1,2,3,5,6,7-hexahydro-s-indacen-4-yl)carbamoyl)-4-hydroxy-5,6,7,8-tetrahydro-4H-5,8-methanocyclohepta[b]furan-2-sulfonamide] was tested, and the IC50 was less than 100 nM.
For CC1(O)c2cc(S(=O)(=O)NC(=O)Nc3c4c(cc5c3CCC5)CCC4)ccc2C2CCC1CC2 (stereo not drawn) [Compound 34, N-((1,2,3,5,6,7-hexahydro-s-indacen-4-yl)carbamoyl)-9-hydroxy-9-methyl-6,7,8,9-tetrahydro-5H-5,8-ethanobenzo[7]annulene-2-sulfonamide], the IC50 was 100 to 1000 nM.
Compound O=C(Nc1c2c(cc3c1CCC3)CCC2)NS(=O)(=O)c1cc2c(o1)C1CCC(CC1)C2=O [Compound 23, N-((1,2,3,5,6,7-hexahydro-s-indacen-4-yl)carbamoyl)-4-oxo-5,6,7,8-tetrahydro-4H-5,8-ethanocyclohepta[b]furan-2-sulfonamide] has an IC50 of less than 100 nM.
Work on O=C(Nc1c2c(cc3c1CCC3)CCC2)NS(=O)(=O)c1cc2c(s1)C1CCC(C1)C2O (stereo not drawn) [Compound 48, N-((1,2,3,5,6,7-hexahydro-s-indacen-4-yl)carbamoyl)-4-hydroxy-5,6,7,8-tetrahydro-4H-5,8-methanocyclohepta[b]thiophene-2-sulfonamide] yielded an IC50 of less than 100 nM.
With CC(C)c1cccc(C(C)C)c1NC(=O)NS(=O)(=O)c1cc2c(o1)C1CCC(C1)C2(C)O (stereo not drawn) [Compound 27, N((2,6-diisopropylphenyl)carbamoyl)-4-hydroxy-4-methyl-5,6,7,8-tetrahydro-4H-5,8-methanocyclohepta[b]furan-2-sulfonamide] the IC50 was less than 100 nM.
O=C(Nc1c2c(c(Br)c3c1CCC3)CCC2)NS(=O)(=O)c1cc2c(o1)C1CCC(C1)C2O (stereo not drawn) [Compound 17, N-((8-bromo-1,2,3,5,6,7-hexahydro-s-indacen-4-yl)carbamoyl)-4-hydroxy-5,6,7,8-tetrahydro-4H-5,8-methanocyclohepta[b]furan-2-sulfonamide] showed an IC50 of 100 to 1000 nM.
In the case of C[C@]1(O)c2cc(S(=O)(=O)NC(=O)Nc3c4c(cc5c3CCC5)CCC4)oc2C2CCC1CC2 [Compound 44, (R)-N-((1,2,3,5,6,7-hexahydro-s-indacen-4-yl)carbamoyl)-4-hydroxy-4-methyl-5,6,7,8-tetrahydro-4H-5,8-ethanocyclohepta[b]furan-2-sulfonamide], the IC50 is reported as less than 100 nM.
C[C@@]1(O)c2cc(S(=O)(=O)NC(=O)Nc3c4c(cc5c3CCC5)CCC4)oc2[C@H]2CC[C@@H]1C2 [Compound 39, (4S,5R,8S)-N-((1,2,3,5,6,7-hexahydro-s-indacen-4-yl)carbamoyl)-4-hydroxy-4-methyl-5,6,7,8-tetrahydro-4H-5,8-methanocyclohepta[b]furan-2-sulfonamide] gave an IC50 of 100 to 1000 nM.
For C[C@@]1(O)c2cc(S(=O)(=O)NC(=O)Nc3c4c(cc5c3CCC5)CCC4)oc2[C@@H]2CC[C@H]1C2 [Compound 41, (4S,5S,8R)-N-((1,2,3,5,6,7-hexahydro-s-indacen-4-yl)carbamoyl)-4-hydroxy-4-methyl-5,6,7,8-tetrahydro-4H-5,8-methanocyclohepta[b]furan-2-sulfonamide], the IC50 was less than 100 nM.
Compound O=C(Nc1c2c(cc3c1CCC3)CCC2)NS(=O)(=O)c1ccc2c(c1)C(=O)C1CCC2CC1 [Compound 32, N-((1,2,3,5,6,7-hexahydro-s-indacen-4-yl)carbamoyl)-9-oxo-6,7,8,9-tetrahydro-5H-5,8-ethanobenzo[7]annulene-2-sulfonamide] has an IC50 of less than 100 nM.
Compound CC(C)c1ccc(F)c(C(C)C)c1NC(=O)NS(=O)(=O)c1cc2c(o1)C1CCC(C1)C2(C)O (stereo not drawn) [Compound 36, N-((3-fluoro-2,6-diisopropylphenyl)carbamoyl)-4-hydroxy-4-methyl-5,6,7,8-tetrahydro-4H-5,8-methanocyclohepta[b]furan-2-sulfonamide] has an IC50 of less than 100 nM.
O=C(Nc1c2c(cc3c1CCC3)CCC2)NS(=O)(=O)c1cc2c(o1)[C@H]1CC[C@H](C1)C2O (stereo partly drawn) [Compound 49, (5R,8S)-N-((1,2,3,5,6,7-hexahydro-s-indacen-4-yl)carbamoyl)-4-hydroxy-5,6,7,8-tetrahydro-4H-5,8-methanocyclohepta[b]furan-2-sulfonamide] gave an IC50 of 100 to 1000 nM.
O=C(Nc1c2c(cc3c1CCC3)CCC2)NS(=O)(=O)c1cc2c(o1)C1CCC(CC1)C2=NO [Compound 24, N-((1,2,3,5,6,7-hexahydro-s-indacen-4-yl)carbamoyl)-4-(hydroxyimino)-5,6,7,8-tetrahydro-4H-5,8-ethanocyclohepta[b]furan-2-sulfonamide] showed an IC50 of less than 100 nM.
For CC(C)c1ccc(Cl)c(C(C)C)c1NC(=O)NS(=O)(=O)c1cc2c(o1)C1CCC(C1)C2(C)O (stereo not drawn) [Compound 26, N-((3-chloro-2,6-diisopropylphenyl)carbamoyl)-4-hydroxy-4-methyl-5,6,7,8-tetrahydro-4H-5,8-methanocyclohepta[b]furan-2-sulfonamide], the IC50 was 100 to 1000 nM.
In the case of CC(C)c1cccc(C(C)C)c1CC(=O)NS(=O)(=O)c1cc2c(o1)C1CCC(C1)C2=O (stereo not drawn) [Compound 14, 2-(2,6-diisopropylphenyl)-N-((4-oxo-5,6,7,8-tetrahydro-4H-5,8-methanocyclohepta[b]furan-2-yl)sulfonyl)acetamide], the IC50 is reported as 1000 to 10000 nM.
For O=C(Nc1c2c(cc3c1CCC3)CCC2)NS(=O)(=O)c1cc2c(o1)C1CCC(CC1)C2CO (stereo not drawn) [Compound 46, N-((1,2,3,5,6,7-hexahydro-s-indacen-4-yl)carbamoyl)-4-(hydroxymethyl)-5,6,7,8-tetrahydro-4H-5,8-ethanocyclohepta[b]furan-2-sulfonamide], the IC50 was less than 100 nM.
For C[C@]1(O)c2cc(S(=O)(=O)NC(=O)Nc3c4c(cc5c3CCC5)CCC4)oc2[C@H]2CC[C@@H]1C2 [Compound 40, (4R,5R,8S)-N-((1,2,3,5,6,7-hexahydro-s-indacen-4-yl)carbamoyl)-4-hydroxy-4-methyl-5,6,7,8-tetrahydro-4H-5,8-methanocyclohepta[b]furan-2-sulfonamide], the IC50 was less than 100 nM.
For C[C@]1(O)c2cc(S(=O)(=O)NC(=O)Nc3c4c(cc5c3CCC5)CCC4)oc2[C@@H]2CC[C@H]1C2 [Compound 42, (4R,5S,8R)-N-((1,2,3,5,6,7-hexahydro-s-indacen-4-yl)carbamoyl)-4-hydroxy-4-methyl-5,6,7,8-tetrahydro-4H-5,8-methanocyclohepta[b]furan-2-sulfonamide], the IC50 was less than 100 nM.
For CC(C)c1cc(Cl)cc(C(C)C)c1NC(=O)NS(=O)(=O)c1cc2c(o1)C1CCC(C1)C2(C)O (stereo not drawn) [Compound 29, N-((4-chloro-2,6-diisopropylphenyl)carbamoyl)-4-hydroxy-4-methyl-5,6,7,8-tetrahydro-4H-5,8-methanocyclohepta[b]furan-2-sulfonamide], the IC50 was 100 to 1000 nM.
CC(C)c1ccc(F)c(C(C)C)c1NC(=O)NS(=O)(=O)c1cc2c(o1)C1CCC(C1)C2O (stereo not drawn) [Compound 37, N-((3-fluoro-2,6-diisopropylphenyl)carbamoyl)-4-hydroxy-5,6,7,8-tetrahydro-4H-5,8-methanocyclohepta[b]furan-2-sulfonamide] showed an IC50 of 100 to 1000 nM.
O=C(Nc1c2c(cc3c1CCC3)CCC2)NS(=O)(=O)c1cc2c(o1)C1CCC(C1)C2O (stereo not drawn) [Compound 9, N-((1,2,3,5,6,7-hexahydro-s-indacen-4-yl)carbamoyl)-4-hydroxy-5,6,7,8-tetrahydro-4H-5,8-methanocyclohepta[b]furan-2-sulfonamide] gave an IC50 of less than 100 nM.
In the case of CC1(O)c2cc(S(=O)(=O)NC(=O)Nc3c4c(cc5c3CCC5)CCC4)oc2C2CCC1C2 (stereo not drawn) [Compound 6, N-((1,2,3,5,6,7-hexahydro-s-indacen-4-yl)carbamoyl)-4-hydroxy-4-methyl-5,6,7,8-tetrahydro-4H-5,8-methanocyclohepta[b]furan-2-sulfonamide], the IC50 is reported as less than 100 nM.
With CC(C)c1cccc(C(C)C)c1CC(=O)NS(=O)(=O)c1cc2c(o1)C1CCC(C1)C2(C)O (stereo not drawn) [Compound 16, 2-(2,6-diisopropylphenyl)-N-((4-hydroxy-4-methyl-5,6,7,8-tetrahydro-4H-5,8-methanocyclohepta[b]furan-2-yl)sulfonyl)acetamide] the IC50 was 100 to 1000 nM.
